Values quoted from earlier work, collected in patent US7741370B2, “Double salts of (−)-hydroxycitric acid and a process for preparing the same” (Laila Impex, priority 2004, dated 2010).

Columns and labels:
[1] = free acid form, forming a lactone; liquid form unstable during storage
[2] = prior-art salt (US 5,783,603), statement in words

Row | Compound | stability [1] | hygroscopicity [2]
1 | O=C(O)CC(O)(C(=O)O)C(O)C(=O)O (single isomer, unassigned; (-)) [(−)-hydroxycitric acid] | unstable | –
2 | potassium salt of HCA | – | hygroscopic
